Measurements: patent US20080064679A1, “Water Soluble Cannabinoids” (priority 2004, published 2008)
Where “and” joins values, the source holds several entries; their conditions need not be identical. Equal entries are not always repeated. Where two headings read alike, the source gives them in different places.

Columns and labels:
mice [1] = test: Relative immobility (R.I.), ring-immobility test, mouse tetrad; type: in vivo; settings: for ED50: Mus musculus, read-out: R.I. ED50 (relative immobility)
human CB1 receptor [2] = target: T1, human CB1 receptor (Homo sapiens, UniProt P21554); test: [35S]GTPγS binding assay in membranes of CB1 expressing cells; type: biochemical; settings: for EC50: mean±SEM; for Emax: read-out: CB1 % CP Stim
T1 construct: expressed in transfected cells; b94 says CHO for CB1
Method: (§1) For the in vivo studies, the drugs were dissolved in either saline or emulphor:ethanol:saline (E:E:S) as indicated.
(§2) cLogP calculations. Absolute solubility determinations were not performed. Rather, cLogP calculations were performed using the CS ChemDraw Ultra software (Cambridge Soft Corporation, Cambridge, Mass.). Receptor Binding. HEK-293 cells stably expressing the human CB1 receptor were cultured in DMEM with 10% FBS and Chinese Hamster Ovary (CHO) cells stably expressing the human CB2 receptor were cultured in DMEM with 10% FCS. Cells were harvested by replacement of the media with cold phosphate-buffered saline containing 1 mM EDTA followed by centrifugation at 1000×g for 5 min at 4° C. The pellet was resuspended in 50 mM Tris-HCl containing 320 mM sucrose, 2 mM EDTA and 5 mM MgCl2 (pH 7.4) (centrifugation buffer), then centrifuged at 1000×g for 10 min at 4° C., and the resulting supernatant was saved. This process was repeated twice. The supernatant fractions were combined and centrifuged at 40,000×g for 30 min at 4° C. The resulting P2 pellet was resuspended in assay buffer (50 mM Tris-HCl (pH 7.4), 3 mM MgCl2, 0.2 mM EGTA, and 100 mM NaCl) and protein was determined by the method of Bradford ENRfu(Bradford 1976). Membranes were stored at −80° C. until use. […] The assay was incubated at 30° C. for 1 hr and terminated by addition of ice cold 50 mM Tris-HCl plus BSA (1 mg/ml) (pH 7.4) followed by filtration under vacuum through Whatman GF/B glass fiber filters with 3 washes with cold Tris buffer. Bound radioactivity was determined by liquid scintillation spectrophotometry at 50% efficiency after extraction by shaking samples for 30-60 min with Budget-Solve scintillation fluid. Data are reported as the mean±SEM of three experiments, each performed in triplicate. Ki values were calculated from displacement data using EBDA (Equilibrium Binding Data Analysis; BIOSOFT, Milltown, N.J.). [^35S]GTPγS Binding Assays. Concentration-effect curves were generated by incubating membranes (10 μg prepared from CB1 expressing cells as described above) in assay buffer containing BSA (1 mg/ml) with various concentrations of test compounds in the presence of 20 μM GDP and 0.1 nM [^35S]GTPγS in a 1 ml total volume. […] Basal binding was assessed in the absence of agonist, and nonspecific binding was measured in the presence of 10 μM GTPγS. The reaction was incubated for 90 min at 30° C. and terminated by filtration under vacuum through Whatman GF/B glass fiber filters with 3 washes with cold (4° C.) Tris buffer (50 mM Tris-HCl, pH 7.4). Bound radioactivity was determined by liquid scintillation spectrophotometry at 95% efficiency after extraction overnight in ScintiSafe Econo 1 scintillation fluid. Data are reported as mean±SEM of three experiments, each performed in triplicate. Nonlinear regression analysis was conducted by iterative fitting using JMP (SAS for Macintosh). Net-stimulated [^35S]GTPγS binding is defined as [^35S]GTPγS binding in the presence of drug minus basal and percent stimulation is expressed as (net stimulated [^35S]GTPγS binding/basal)×100%. Behavioral Evaluations. All animals were allowed to acclimate to the observation room overnight. Behavioral effects were assessed in the tetrad model in order to measure potency in producing antinociception, catalepsy, hypothermia, and hypomobility. The baselines for tail-flick latency (2-4 seconds) and rectal temperature were determined prior to i.v. injections. Baseline rectal temperatures were measured using a telethermometer and a thermometer probe inserted to 25 mm (Yellow Springs Instrument Co., Yellow Springs, Ohio). The mice were then given either an i.v. i.c.v. injection of the analog. The mice were placed in individual photocell activity chambers 5 min later. Spontaneous activity was monitored for 10 min in a Digiscan Animal Activity Monitor (Omnitech Electronice, Inc., Columbus, Ohio) as measured by the number of interruptions of 16 photocell beams per chamber.

mice [3] = test: Spontaneous activity (S.A.), mouse tetrad; type: in vivo; settings: for ED50: Mus musculus, read-out: S.A. ED50 (reducing spontaneous activity)
mice [4] = test: Tail-flick antinociception (T.F.), mouse tetrad; type: in vivo; settings: mice; for ED50: Mus musculus, read-out: T.F. ED50 (antinociception in the tail-flick procedure)
mice [5] = test: Rectal temperature (R.T.), mouse tetrad; type: in vivo; settings: for ED50: Mus musculus, read-out: R.T. ED50 (lowering rectal temperature)
human CB1 receptor [6] = target: T1, human CB1 receptor; test: CB1 receptor binding, [3H]CP55,940 displacement in membranes of transfected cells
Method: as §1, §2

mice [7] = test: Tetrad model, all four behavioral measures together (time course, oral and i.c.v. administration); type: in vivo, mouse
[8] = [35S]GTPγS binding, read-out: CB1 EC50
[9] = maximal GTPγS binding as percentage of stimulation produced by CP 55,940
[10] = Tables 2b, 3b, 4a, mean±SEM, read-out: CB1 Ki
[11] = iv, i.v., vehicle E:E:S (1:1:18)
[12] = Table 4b, vehicle not indicated

T1 sequence (P21554 whole entry): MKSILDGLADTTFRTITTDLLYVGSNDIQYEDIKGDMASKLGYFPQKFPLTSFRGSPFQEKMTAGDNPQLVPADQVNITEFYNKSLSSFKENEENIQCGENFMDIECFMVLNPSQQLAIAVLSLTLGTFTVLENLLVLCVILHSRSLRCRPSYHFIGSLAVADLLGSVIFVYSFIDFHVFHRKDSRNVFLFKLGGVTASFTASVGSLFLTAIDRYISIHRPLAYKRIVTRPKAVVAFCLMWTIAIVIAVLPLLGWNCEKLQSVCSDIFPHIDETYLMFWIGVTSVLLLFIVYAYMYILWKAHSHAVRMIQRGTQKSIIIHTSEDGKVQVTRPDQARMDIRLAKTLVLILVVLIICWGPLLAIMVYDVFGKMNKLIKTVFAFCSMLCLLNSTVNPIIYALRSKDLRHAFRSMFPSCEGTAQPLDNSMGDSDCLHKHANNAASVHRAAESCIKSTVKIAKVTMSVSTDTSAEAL

Row | Compound | ED50 (mice [1]; iv, vehicle E:E:S (1:1:18)) | EC50 (human CB1 receptor [2]; CB1 EC50, [35S]GTPγS binding) | Emax (human CB1 receptor [2]; [9]) | ED50 (mice [3]; iv, vehicle E:E:S (1:1:18)) | ED50 (mice [4]; [11]) | ED50 (mice [5]; iv, vehicle E:E:S (1:1:18)) | Ki (human CB1 receptor [6]; CB1 Ki) | also measured
1 | 1-(2-methyl-4-N-piperidinobutyryloxy) [O-2374] |  |  |  |  |  |  |  | R.I. ED50 (relative immobility) (mice [1]; i.v., vehicle saline): 0.57 µmol/kg; EC50 (human CB1 receptor [2]; [8]): 16.5 ± 6.97 nM; CB1 % CP Stim (human CB1 receptor [2]; [9]): 80.9 ± 3.73%; S.A. ED50 (reducing spontaneous activity) (mice [3]; i.v., vehicle saline): 0.18 µmol/kg; T.F. ED50 (antinociception in the tail-flick procedure) (mice [4]; i.v., vehicle saline): 0.41 µmol/kg; R.T. ED50 (lowering rectal temperature) (mice [5]; i.v., vehicle saline): 0.72 µmol/kg; Ki (human CB1 receptor [6]; [10]): 4.62 ± 2.2 nM
2 | CC1=CC[C@@H]2[C@@H](C1)c1c(O)cc(C(C)(C)CCCCC(N)=O)cc1OC2(C)C [O-2352, Carboxamido] | 0.93 µmol/kg | 42 ± 4 nM | 95 ± 0.3% | 0.16 µmol/kg | 0.84 µmol/kg | 1.72 µmol/kg | 13.1 ± 0.61 nM | In vivo potency relative to Δ^9-THC (times more potent) (mice [7]; mice, i.v., 1:1:18 vehicle): slightly more potent than Δ^9-THC
3 | CC1=CC[C@@H]2[C@@H](C1)c1c(O)cc(C(C)(C)CCCCC(=O)N3CCOCC3)cc1OC2(C)C [O-2372, Morpholino-carboxamido] | 0.03 µmol/kg | 5.88 ± 0.42 nM | 120 ± 1.11% | 0.01 µmol/kg | 0.01 µmol/kg | 0.07 µmol/kg | 1.3 ± 0.12 nM | 
4 | CC1=CC[C@@H]2[C@@H](C1)c1c(O)cc(C(C)(C)CCCCC(=O)N3CCCCC3)cc1OC2(C)C [O-2373, Piperidino-carboxamido] | 0.04 µmol/kg | 13.5 ± 1.81 nM | 119 ± 2.05% | 0.02 µmol/kg | 0.03 µmol/kg | 0.03 µmol/kg | 0.96 ± 0.11 nM | 
5 | CC1=CC[C@@H]2[C@@H](C1)c1c(O)cc(C(C)(C)CCCCC(=O)N3CCN(C)CC3)cc1OC2(C)C [O-2381, Methylepiperazino-carboxamido] | 183 µmol/kg |  |  | 21.4 µmol/kg | 34 µmol/kg | 51 µmol/kg | 112 ± 14 nM | Decrease of CB1 receptor affinity and pharmacological potency, piperidine to piperazine (human CB1 receptor [6]): more than a hundred fold
6 | CC1=CC[C@@H]2[C@@H](C1)c1c(O)cc(C(C)(C)CCCCC(=O)N3CCCC3)cc1OC2(C)C [O-2399, Pyrrolidino-carboxamido] | 0.15 µmol/kg | 275 ± 87.9 nM | 117 ± 4.9% | 0.03 µmol/kg | 0.1 µmol/kg | 0.23 µmol/kg | 2.85 ± 0.52 nM | 
7 | CC1=CC[C@@H]2[C@@H](C1)c1c(O)cc(C(C)(C)CCCCC(=O)N3CCCCCC3)cc1OC2(C)C [O-2421, Homopiperidino-carboxamido] | 0.86 µmol/kg | 23.2 ± 2.06 nM | 81.8 ± 8.96% | 0.15 µmol/kg | 0.16 µmol/kg | 0.44 µmol/kg | 4.24 ± 1.01 nM | 
8 | CC1=CC[C@@H]2[C@@H](C1)c1c(O)cc(C(C)(C)CCCCC(=O)NN3CCCCCC3)cc1OC2(C)C [O-2489, N-(Homo-piperidin-1-yl)-carboxamido] | 20.5 µmol/kg | 86.6 ± 17.4 nM | 112 ± 2.32% | 2.07 µmol/kg | 2.53 µmol/kg | 8.5 µmol/kg | 15.8 ± 0.44 nM | 
9 | CNC(=O)CCCCC(C)(C)c1cc(O)c2c(c1)OC(C)(C)[C@@H]1CC=C(C)C[C@@H]21 [O-2490, N-(Methyl)carboxamido] | > 2.5 µmol/kg | 64.2 ± 10.6 nM | 92.7 ± 7.81% | 0.49 µmol/kg | 1.37 µmol/kg | > 2.5 µmol/kg | 18.7 ± 0.58 nM | Maximal effects in hypothermia and catalepsy assays (mice [7]; dose 1 mg/kg that produced maximal effects in the other two measures): failed to produce maximal effects in hypothermia and catalepsy assays
10 | CC1=CC[C@@H]2[C@@H](C1)c1c(O)cc(C(C)(C)CCCCC(=O)NN3CCCC3)cc1OC2(C)C [O-2543, N-(Pyrrolidin-yl)-carboxamido] | 25.8 µmol/kg | 81.1 ± 40 nM | 71.3 ± 4.23% | 0.71 µmol/kg | 0.75 µmol/kg | 8.19 µmol/kg | 23.3 ± 3.4 nM | 
11 | CC1=CC[C@@H]2[C@@H](C1)c1c(O)cc(C(C)(C)CCCCC(=O)NN3CCOCC3)cc1OC2(C)C [O-2544, N-(Morpholin-1-yl)-carboxamido] | 0.63 µmol/kg | 39.7 ± 11.4 nM | 116 ± 3.71% | 0.17 µmol/kg | 0.48 µmol/kg | 0.25 µmol/kg | 5.97 ± 0.65 nM | 
12 | CC1=CC[C@@H]2[C@@H](C1)c1c(O)cc(C(C)(C)CCCCn3ccnc3C)cc1OC2(C)C [O-2651, 2-Methyl-imidazol-1-y1] |  | 82.9 ± 45.7 nM | 33.4 ± 3.41% |  |  |  | 13.9 ± 0.83 nM | ED50 (mice [1]; iv, vehicle saline): 4.29 µmol/kg; In vivo potency, fold less potent than the hydrochloride salt of O-2545 (mice [7]; mice, administered in saline): at least 10 fold; ED50 (mice [3]; iv, vehicle saline): 1.46 µmol/kg; ED50 (mice [4]; iv, i.v., vehicle saline): 1.75 µmol/kg; ED50 (mice [5]; iv, vehicle saline): 3.58 µmol/kg
13 | CC1=CC[C@@H]2C(C1)c1c(OC(=O)CCCN(C(C)C)C(C)C)cc(C(C)(C)CCCCC(=O)N3CCOCC3)cc1OC2(C)C (stereo partly drawn) [O-2694, Diisopropylaminobutyrate of Δ^8-THC-3-(1,1-dimethyl-6-morpholin-4-yl-6-oxo-hexyl)] |  |  | 120 ± 8.04% |  |  |  |  | ED50 (mice [1]; [12]): 0.11 µmol/kg; EC50 (human CB1 receptor [2]; [8]): 28.3 ± 3.47 nM; ED50 (mice [3]; [12]): 0.045 µmol/kg; ED50 (mice [4]; [12]): 0.035 µmol/kg; ED50 (mice [5]; [12]): 0.12 µmol/kg; Ki (human CB1 receptor [6]; [10]): 3.7 ± 0.43 nM
14 | CC1=CC[C@@H]2[C@@H](C1)c1c(O)cc(C(C)(C)CCCCc3ncc[nH]3)cc1OC2(C)C [O-2737, 1H-Imidazol-2-yl] | > 24.5 µmol/kg |  |  | > 24.5 µmol/kg | > 24.5 µmol/kg | > 24.5 µmol/kg | 54 nM and 54.9 nM | ED50 (mice [1]; iv, vehicle saline): > 2.2 µmol/kg; ED50 (mice [3]; iv, vehicle saline): > 2.2 µmol/kg; ED50 (mice [4]; iv, i.v., vehicle saline): > 2.2 µmol/kg; ED50 (mice [5]; iv, vehicle saline): > 2.2 µmol/kg
